Measurements as given in patent US20080306094A1 (priority 2005, published 2008).
Read-outs that look alike come from different tables or passages of the source.

Key:
HUVEC = HUVEC assay, endothelial cell proliferation; assay type: cell-based; conditions: Homo sapiens
Calu-6 tumour xenograft = Calu-6 tumour xenograft in vivo solid tumour model; conditions: once-daily oral, 28 days

## COc1cc2c(Oc3ccc4[nH]c(C)cc4c3F)ncnc2cc1OCCCN1CCCC1 [AZD2171, 4-(4-fluoro-2-methyl-1H-indol-5-yloxy)-6-methoxy-7-(3-(pyrrolidin-1-yl)propoxy)quinazoline]
HUVEC; VEGF-stimulated, read-out: IC50, VEGF-stimulated endothelial cell proliferation
  IC50: 0.4 ± 0.2 nM
HUVEC; basal, read-out: IC50, basal endothelial cell proliferation
  IC50: > 500 nM
Calu-6 tumour xenograft; 1.5 mg/kg/day, P<0.01 one-tailed t test
  inhibition of growth of Calu-6 tumour xenograft: 49%
Calu-6 tumour xenograft; 3 mg/kg/day, P<0.0001 one-tailed t test
  inhibition of growth of Calu-6 tumour xenograft: 69%
Calu-6 tumour xenograft; 6 mg/kg/day, P<0.0001 one-tailed t test
  inhibition of growth of Calu-6 tumour xenograft: 91%
